# In ChEMBL document CHEMBL3860082, “Effect of lysine methylation and acetylation on the RNA recognition and cellular uptake of Tat-derived peptides” (Bioorg Med Chem, 2016):
# Experiments:
# [1] = Competitive binding affinity to fluorescein-labeled HIV TAR RNA in presence of Escherichia coli tRNA by electrophoretic mobility shift assay; design: species or system Human immunodeficiency virus; conditions: read-out: Kd(app)
# [2] = Drug uptake in human Jurkat cells assessed as mean fluorescence intensity at 7 uM after 15 mins in presence of bovine serum by propidium iodide staining based FACS analysis; format: ADME, cell-based; conditions: 0.25 h
# [3] = Cytotoxicity against human Jurkat cells assessed as reduction in cell viability at 120 uM after 4 hrs by WST1 assay; format: toxicity, cell-based
# [4] = Drug uptake in human Jurkat cells assessed as mean fluorescence intensity at 120 uM after 15 mins in presence of bovine serum by propidium iodide staining based FACS analysis; format: ADME, cell-based; conditions: 0.25 h
SMILES,Kd [1] [nM],Drug uptake [2],Activity [3],Drug uptake [4]
CC(=O)NCCCC[C@H](NC(=O)[C@H](CCCNC(=N)N)NC(=O)CNC(=O)[C@H](Cc1ccc(O)cc1)NC(C)=O)C(=O)N[C@@H](CCCCN)C(=O)N[C@@H](CCCNC(=N)N)C(=O)N[C@@H](CCCNC(=N)N)C(=O)N[C@@H](CCC(N)=O)C(=O)N[C@@H](CCCNC(=N)N)C(=O)N[C@@H](CCCNC(=N)N)C(=O)N[C@@H](CCCNC(=N)N)C(N)=O,437,–,–,–
C[N+](C)(C)CCCC[C@H](NC(=O)[C@H](CCCNC(=N)N)NC(=O)CNC(=O)[C@H](Cc1ccc(O)cc1)NC(=O)CCNC(=O)c1ccc2c(c1)C1(OC2=O)c2ccc(O)cc2Oc2cc(O)ccc21)C(=O)N[C@@H](CCCCN)C(=O)N[C@@H](CCCNC(=N)N)C(=O)N[C@@H](CCCNC(=N)N)C(=O)N[C@@H](CCC(N)=O)C(=O)N[C@@H](CCCNC(=N)N)C(=O)N[C@@H](CCCNC(=N)N)C(=O)N[C@@H](CCCNC(=N)N)C(=O)O,–,Active,Non-Toxic,Active
CC(=O)N[C@@H](Cc1ccc(O)cc1)C(=O)NCC(=O)N[C@@H](CCCNC(=N)N)C(=O)N[C@@H](CCCCN(C)C)C(=O)N[C@@H](CCCCN)C(=O)N[C@@H](CCCNC(=N)N)C(=O)N[C@@H](CCCNC(=N)N)C(=O)N[C@@H](CCC(N)=O)C(=O)N[C@@H](CCCNC(=N)N)C(=O)N[C@@H](CCCNC(=N)N)C(=O)N[C@@H](CCCNC(=N)N)C(N)=O,183,–,–,–
CC(=O)N[C@@H](Cc1ccc(O)cc1)C(=O)NCC(=O)N[C@@H](CCCNC(=N)N)C(=O)N[C@@H](CCCCN)C(=O)N[C@@H](CCCCN(C)C)C(=O)N[C@@H](CCCNC(=N)N)C(=O)N[C@@H](CCCNC(=N)N)C(=O)N[C@@H](CCC(N)=O)C(=O)N[C@@H](CCCNC(=N)N)C(=O)N[C@@H](CCCNC(=N)N)C(=O)N[C@@H](CCCNC(=N)N)C(N)=O,280,–,–,–
CNCCCC[C@H](NC(=O)[C@H](CCCNC(=N)N)NC(=O)CNC(=O)[C@H](Cc1ccc(O)cc1)NC(=O)CCNC(=O)c1ccc2c(c1)C1(OC2=O)c2ccc(O)cc2Oc2cc(O)ccc21)C(=O)N[C@@H](CCCCN)C(=O)N[C@@H](CCCNC(=N)N)C(=O)N[C@@H](CCCNC(=N)N)C(=O)N[C@@H](CCC(N)=O)C(=O)N[C@@H](CCCNC(=N)N)C(=O)N[C@@H](CCCNC(=N)N)C(=O)N[C@@H](CCCNC(=N)N)C(=O)O,–,Active,Non-Toxic,Active
CC(=O)NCCCC[C@H](NC(=O)[C@H](CCCCN)NC(=O)[C@H](CCCNC(=N)N)NC(=O)CNC(=O)[C@H](Cc1ccc(O)cc1)NC(C)=O)C(=O)N[C@@H](CCCNC(=N)N)C(=O)N[C@@H](CCCNC(=N)N)C(=O)N[C@@H](CCC(N)=O)C(=O)N[C@@H](CCCNC(=N)N)C(=O)N[C@@H](CCCNC(=N)N)C(=O)N[C@@H](CCCNC(=N)N)C(N)=O,371,–,–,–
CNCCCC[C@H](NC(=O)[C@H](CCCNC(=N)N)NC(=O)CNC(=O)[C@H](Cc1ccc(O)cc1)NC(C)=O)C(=O)N[C@@H](CCCCN)C(=O)N[C@@H](CCCNC(=N)N)C(=O)N[C@@H](CCCNC(=N)N)C(=O)N[C@@H](CCC(N)=O)C(=O)N[C@@H](CCCNC(=N)N)C(=O)N[C@@H](CCCNC(=N)N)C(=O)N[C@@H](CCCNC(=N)N)C(N)=O,264,–,–,–
CC(=O)N[C@@H](Cc1ccc(O)cc1)C(=O)NCC(=O)N[C@@H](CCCNC(=N)N)C(=O)N[C@@H](CCCC[N+](C)(C)C)C(=O)N[C@@H](CCCCN)C(=O)N[C@@H](CCCNC(=N)N)C(=O)N[C@@H](CCCNC(=N)N)C(=O)N[C@@H](CCC(N)=O)C(=O)N[C@@H](CCCNC(=N)N)C(=O)N[C@@H](CCCNC(=N)N)C(=O)N[C@@H](CCCNC(=N)N)C(N)=O,168,–,–,–
CNCCCC[C@H](NC(=O)[C@H](CCCCN)NC(=O)[C@H](CCCNC(=N)N)NC(=O)CNC(=O)[C@H](Cc1ccc(O)cc1)NC(=O)CCNC(=O)c1ccc2c(c1)C1(OC2=O)c2ccc(O)cc2Oc2cc(O)ccc21)C(=O)N[C@@H](CCCNC(=N)N)C(=O)N[C@@H](CCCNC(=N)N)C(=O)N[C@@H](CCC(N)=O)C(=O)N[C@@H](CCCNC(=N)N)C(=O)N[C@@H](CCCNC(=N)N)C(=O)N[C@@H](CCCNC(=N)N)C(=O)O,–,–,Non-Toxic,–
CC(=O)N[C@@H](Cc1ccc(O)cc1)C(=O)NCC(=O)N[C@@H](CCCNC(=N)N)C(=O)N[C@@H](CCCCN)C(=O)N[C@@H](CCCC[N+](C)(C)C)C(=O)N[C@@H](CCCNC(=N)N)C(=O)N[C@@H](CCCNC(=N)N)C(=O)N[C@@H](CCC(N)=O)C(=O)N[C@@H](CCCNC(=N)N)C(=O)N[C@@H](CCCNC(=N)N)C(=O)N[C@@H](CCCNC(=N)N)C(N)=O,599,–,–,–
CC(=O)NCCCC[C@H](NC(=O)[C@H](CCCNC(=N)N)NC(=O)CNC(=O)[C@H](Cc1ccc(O)cc1)NC(=O)CCNC(=O)c1ccc2c(c1)C1(OC2=O)c2ccc(O)cc2Oc2cc(O)ccc21)C(=O)N[C@@H](CCCCN)C(=O)N[C@@H](CCCNC(=N)N)C(=O)N[C@@H](CCCNC(=N)N)C(=O)N[C@@H](CCC(N)=O)C(=O)N[C@@H](CCCNC(=N)N)C(=O)N[C@@H](CCCNC(=N)N)C(=O)N[C@@H](CCCNC(=N)N)C(=O)O,–,–,Non-Toxic,–
CN(C)CCCC[C@H](NC(=O)[C@H](CCCCN)NC(=O)[C@H](CCCNC(=N)N)NC(=O)CNC(=O)[C@H](Cc1ccc(O)cc1)NC(=O)CCNC(=O)c1ccc2c(c1)C1(OC2=O)c2ccc(O)cc2Oc2cc(O)ccc21)C(=O)N[C@@H](CCCNC(=N)N)C(=O)N[C@@H](CCCNC(=N)N)C(=O)N[C@@H](CCC(N)=O)C(=O)N[C@@H](CCCNC(=N)N)C(=O)N[C@@H](CCCNC(=N)N)C(=O)N[C@@H](CCCNC(=N)N)C(=O)O,–,–,Non-Toxic,Active
N=C(N)NCCC[C@H](NC(=O)[C@H](CCCNC(=N)N)NC(=O)[C@H](CCCNC(=N)N)NC(=O)[C@H](CCC(N)=O)NC(=O)[C@H](CCCNC(=N)N)NC(=O)[C@H](CCCNC(=N)N)NC(=O)[C@H](CCCCN)NC(=O)[C@H](CCCCN)NC(=O)[C@H](CCCNC(=N)N)NC(=O)CNC(=O)[C@H](Cc1ccc(O)cc1)NC(=O)CCNC(=O)c1ccc2c(c1)C1(OC2=O)c2ccc(O)cc2Oc2cc(O)ccc21)C(N)=O,–,Active,Non-Toxic,Active
C[N+](C)(C)CCCC[C@H](NC(=O)[C@H](CCCCN)NC(=O)[C@H](CCCNC(=N)N)NC(=O)CNC(=O)[C@H](Cc1ccc(O)cc1)NC(=O)CCNC(=O)c1ccc2c(c1)C1(OC2=O)c2ccc(O)cc2Oc2cc(O)ccc21)C(=O)N[C@@H](CCCNC(=N)N)C(=O)N[C@@H](CCCNC(=N)N)C(=O)N[C@@H](CCC(N)=O)C(=O)N[C@@H](CCCNC(=N)N)C(=O)N[C@@H](CCCNC(=N)N)C(=O)N[C@@H](CCCNC(=N)N)C(=O)O,–,–,Non-Toxic,Active
CC(=O)NCCCC[C@H](NC(=O)[C@H](CCCCN)NC(=O)[C@H](CCCNC(=N)N)NC(=O)CNC(=O)[C@H](Cc1ccc(O)cc1)NC(=O)CCNC(=O)c1ccc2c(c1)C1(OC2=O)c2ccc(O)cc2Oc2cc(O)ccc21)C(=O)N[C@@H](CCCNC(=N)N)C(=O)N[C@@H](CCCNC(=N)N)C(=O)N[C@@H](CCC(N)=O)C(=O)N[C@@H](CCCNC(=N)N)C(=O)N[C@@H](CCCNC(=N)N)C(=O)N[C@@H](CCCNC(=N)N)C(=O)O,–,–,Non-Toxic,–
CN(C)CCCC[C@H](NC(=O)[C@H](CCCNC(=N)N)NC(=O)CNC(=O)[C@H](Cc1ccc(O)cc1)NC(=O)CCNC(=O)c1ccc2c(c1)C1(OC2=O)c2ccc(O)cc2Oc2cc(O)ccc21)C(=O)N[C@@H](CCCCN)C(=O)N[C@@H](CCCNC(=N)N)C(=O)N[C@@H](CCCNC(=N)N)C(=O)N[C@@H](CCC(N)=O)C(=O)N[C@@H](CCCNC(=N)N)C(=O)N[C@@H](CCCNC(=N)N)C(=O)N[C@@H](CCCNC(=N)N)C(=O)O,–,Active,Non-Toxic,Active
CNCCCC[C@H](NC(=O)[C@H](CCCCN)NC(=O)[C@H](CCCNC(=N)N)NC(=O)CNC(=O)[C@H](Cc1ccc(O)cc1)NC(C)=O)C(=O)N[C@@H](CCCNC(=N)N)C(=O)N[C@@H](CCCNC(=N)N)C(=O)N[C@@H](CCC(N)=O)C(=O)N[C@@H](CCCNC(=N)N)C(=O)N[C@@H](CCCNC(=N)N)C(=O)N[C@@H](CCCNC(=N)N)C(N)=O,410,–,–,–
